Experimental data: patent US8895561B2, “Compounds and methods for treating candidiasis and aspergillus infections” (Cellceutix Corporation, priority 2012, dated 2014)
In brackets after ≈: the same amount, converted by molar mass. Like-named read-outs stand apart in the source and are kept apart here.

Experiments:
[1] = test system: C. albicans GDH2346; assay: Candida IC50, vegetative cells, by OD600 and fluorescence; type: cell-based; conditions: for IC50: Candida albicans, GDH2346
Protocol: Candida IC50s were determined by OD600 and fluorescence from vegetative cells and by MTS viability assay in the hyphal state. MICs were determined using a broth microdilution assay under standard CLSI conditions Bacteria strains: E. coli 25922 (EC), S. aureus 27660 (SA), E. faecalis 29212 (EF), P. aeruginosa 10145 (PA), and K. pneumoniae 13883 (KP). Cytotoxicity (EC50) was determined against mouse 3T3 fibroblasts, human transformed liver HepG2 cells, and human oral keratinocyte cell line, OKF6/TERT using an MTS viability assay. Candida IC50s<10 μg/mL, MICs<5 μg/mL and cytotoxicity EC50s>100 μM are indicated in green. MICs>5 μg/mL and cytotoxicity EC50s<100 μM are indicated in red. Candida IC50s (CA) were determined by OD600 and fluorescence from vegetative cells. MICs were determined using a broth microdilution assay under standard CLSI conditions Bacteria strains: E. coli 25922 (EC), S. aureus 27660 (SA), E. faecalis 29212 (EF), P. aeruginosa 10145 (PA), and K. pneumoniae 13883 (KP). Cytotoxicity (EC50) was determined against mouse 3T3 fibroblasts and human transformed liver HepG2 cells using an MTS viability assay. For determination of anti-Candida IC50s, the method was modified by using RPMI/MOPS buffer pH 6.3 and by addition of FDGlu, a substrate for the yeast enzyme exoglucanase which is secreted during cell growth. This provides a fluorescent readout for cell growth which was used in addition to the traditional optical density measure of growth. OD600 and fluorescence were determined at 24 and 48 hours and the average of all 4 reads was used for the final IC50 determination.

[2] = Cytotoxicity, MTS viability assay; type: cell-based, human; conditions: Table 6
Protocol: (§1) Candida IC50s were determined by OD600 and fluorescence from vegetative cells and by MTS viability assay in the hyphal state. MICs were determined using a broth microdilution assay under standard CLSI conditions Bacteria strains: E. coli 25922 (EC), S. aureus 27660 (SA), E. faecalis 29212 (EF), P. aeruginosa 10145 (PA), and K. pneumoniae 13883 (KP). Cytotoxicity (EC50) was determined against mouse 3T3 fibroblasts, human transformed liver HepG2 cells, and human oral keratinocyte cell line, OKF6/TERT using an MTS viability assay. Candida IC50s<10 μg/mL, MICs<5 μg/mL and cytotoxicity EC50s>100 μM are indicated in green. MICs>5 μg/mL and cytotoxicity EC50s<100 μM are indicated in red.
(§2) Candida IC50s (CA) were determined by OD600 and fluorescence from vegetative cells. MICs were determined using a broth microdilution assay under standard CLSI conditions Bacteria strains: E. coli 25922 (EC), S. aureus 27660 (SA), E. faecalis 29212 (EF), P. aeruginosa 10145 (PA), and K. pneumoniae 13883 (KP). Cytotoxicity (EC50) was determined against mouse 3T3 fibroblasts and human transformed liver HepG2 cells using an MTS viability assay.
(§3) CLSI conditions Bacteria strains: clinical isolates; yeast strains: C. dubliniensis (NCPF3949), C. glabrata (ATCC 90030), C. krusei (ATCC 6258), C. parapsilosis (ATCC 22019), and C. tropicalis (ATCC 750). Cytotoxicity (EC50) was determined against mouse 3T3 fibroblasts, human transformed liver HepG2 cells, and human oral keratinocyte cell line, OKF6/TERT using an MTS viability assay.

[3] = test system: A. flavus (NRRL3357); assay: Anti-Aspergillus screen, CLSI M38-A, visual inhibition of growth; type: cell-based; conditions: screening concentration 10 μM, 24-48 hours
Protocol: (§4) The in vitro efficacy of a library of compounds was assessed for antifungal activity against A. niger (AN1), A. fumigatus ([…]) and A. flavus (NRRL3357) and compared to that of Itraconazole. For a subset of compounds selected based upon efficacy in the screening study a full MIC profile was conducted. Efficacy of test articles was determined in RPMI 1640 broth with MOPS buffered to pH7.2 in accordance with CLSI guidelines M38-A for Antifungal Susceptibility Testing of Filamentous Fungi. The method was modified by using flat well plates to allow microscopic identification of growth. The final screening concentration of each test article was 10 μM. Assay plates were incubated aerobically at 37° C. for 24-48 hours. Following incubation, plates were assessed visually (by eye and microscopically) for inhibition of growth. Inhibition was recorded at 50%, 80% and 100% inhibition compared to the positive control.

[4] = test system: A. fumigatus (A1163); assay: as above; type: cell-based; conditions: screening concentration 10 μM, 24-48 hours
Protocol: as §4

[5] = test system: A. niger (AN1); assay: as above; type: cell-based; conditions: screening concentration 10 μM, 24-48 hours
Protocol: as §4

[6] = test system: C. albicans GDH2346 hyphal biofilm; assay: Candida IC50 in the hyphal state / hyphal biofilm, MTS viability assay; type: cell-based; conditions: Candida albicans; hyphal state; read-out: IC50 Candida, Hyphal
Protocol: Candida IC50s were determined by OD600 and fluorescence from vegetative cells and by MTS viability assay in the hyphal state. MICs were determined using a broth microdilution assay under standard CLSI conditions Bacteria strains: E. coli 25922 (EC), S. aureus 27660 (SA), E. faecalis 29212 (EF), P. aeruginosa 10145 (PA), and K. pneumoniae 13883 (KP). Cytotoxicity (EC50) was determined against mouse 3T3 fibroblasts, human transformed liver HepG2 cells, and human oral keratinocyte cell line, OKF6/TERT using an MTS viability assay. Candida IC50s<10 μg/mL, MICs<5 μg/mL and cytotoxicity EC50s>100 μM are indicated in green. MICs>5 μg/mL and cytotoxicity EC50s<100 μM are indicated in red. To form the biofilm, yeast were grown in RPMI/MOPS, 0.4% sucrose pH7.4 media supplemented with 10% FBS in tissue culture-treated flat bottom 96 well plates for 48 hours. The filamentous yeast cultures were then vigorously washed to remove any non-filamentous, non-attached yeast. The remaining attached filamentous biofilm yeast were incubated in saline containing serially diluted compounds for 24 hours. The cultures were aspirated to remove compound, rinsed and overlayed with RPMI/MOPS, 0.4% sucrose pH7.4 media. Biofilm viability was measured using a cell proliferation assay (CellTiter96 Aqueous Kit from Promega) and IC50s were determined using Prism GraphPad software (nonlinear fit, Table 3).

[7] = test system: K. pneumoniae 13883; assay: Bacterial MIC, broth microdilution, CLSI; type: cell-based; conditions: Klebsiella pneumoniae
Protocol: as §1, with “red. Candida IC50s (CA) were determined by OD600 and fluorescence from vegetative cells. MICs were determined using a broth microdilution assay under standard CLSI conditions Bacteria strains: E. coli 25922 (EC), S. aureus 27660 (SA), E. faecalis 29212 (EF), P. aeruginosa 10145 (PA), and K. pneumoniae 13883 (KP). Cytotoxicity (EC50) was determined against mouse 3T3 fibroblasts and human transformed liver HepG2 cells using an MTS viability assay.” for “red.”

[8] = test system: P. aeruginosa 10145; assay: Bacterial MIC, broth microdilution, CLSI; type: cell-based
Protocol: as §1, with “red. Candida IC50s (CA) were determined by OD600 and fluorescence from vegetative cells. MICs were determined using a broth microdilution assay under standard CLSI conditions Bacteria strains: E. coli 25922 (EC), S. aureus 27660 (SA), E. faecalis 29212 (EF), P. aeruginosa 10145 (PA), and K. pneumoniae 13883 (KP). Cytotoxicity (EC50) was determined against mouse 3T3 fibroblasts and human transformed liver HepG2 cells using an MTS viability assay.” for “red.”

[9] = test system: S. aureus 27660; assay: Bacterial MIC, broth microdilution, CLSI; type: cell-based
Protocol: as §1, with “red. Candida IC50s (CA) were determined by OD600 and fluorescence from vegetative cells. MICs were determined using a broth microdilution assay under standard CLSI conditions Bacteria strains: E. coli 25922 (EC), S. aureus 27660 (SA), E. faecalis 29212 (EF), P. aeruginosa 10145 (PA), and K. pneumoniae 13883 (KP). Cytotoxicity (EC50) was determined against mouse 3T3 fibroblasts and human transformed liver HepG2 cells using an MTS viability assay.” for “red.”

[10] = test system: E. coli 25922; assay: Bacterial MIC, broth microdilution, CLSI; type: cell-based
Protocol: as §1, with “red. Candida IC50s (CA) were determined by OD600 and fluorescence from vegetative cells. MICs were determined using a broth microdilution assay under standard CLSI conditions Bacteria strains: E. coli 25922 (EC), S. aureus 27660 (SA), E. faecalis 29212 (EF), P. aeruginosa 10145 (PA), and K. pneumoniae 13883 (KP). Cytotoxicity (EC50) was determined against mouse 3T3 fibroblasts and human transformed liver HepG2 cells using an MTS viability assay.” for “red.”

[11] = test system: E. faecalis 29212; assay: Bacterial MIC, broth microdilution, CLSI; type: cell-based
Protocol: as §1, with “red. Candida IC50s (CA) were determined by OD600 and fluorescence from vegetative cells. MICs were determined using a broth microdilution assay under standard CLSI conditions Bacteria strains: E. coli 25922 (EC), S. aureus 27660 (SA), E. faecalis 29212 (EF), P. aeruginosa 10145 (PA), and K. pneumoniae 13883 (KP). Cytotoxicity (EC50) was determined against mouse 3T3 fibroblasts and human transformed liver HepG2 cells using an MTS viability assay.” for “red.”

[12] = test system: mouse 3T3 fibroblasts; assay: Cytotoxicity, MTS viability assay; type: cell-based
Protocol: as §1, §2, §3

[13] = test system: human transformed liver HepG2 cells; assay: Cytotoxicity, MTS viability assay; type: cell-based
Protocol: as §1, §2, §3

[14] = test system: human oral keratinocyte cell line, OKF6/TERT; assay: Cytotoxicity, MTS viability assay; type: cell-based
Protocol: as §1, §3

[15] = Table 6, read-out: IC50 C. albicans
[16] = human, HepG2 cells (transformed liver), read-out: Cytotoxicity EC50 Human HepG2
[17] = mouse, 3T3 fibroblasts, read-out: Cytotoxicity EC50 Mouse 3T3

Work on COc1cc(SCCNC(=N)N)c(C(F)(F)F)cc1NC(=O)c1cc(C(=O)Nc2cc(C(F)(F)F)c(SCCNC(=N)N)cc2OC)nc(SCCNC(=N)N)n1 [Cmpd 183] yielded an IC50 [1, 15] of 2 µg/mL (≈ 2.31 µM), an EC50 [2, 16] of no less than 1000 µM and an EC50 [2, 17] of 478 µM. For the same compound, the inhibition at 10 µM [3] was 100%, the inhibition at 10 µM [4] was 100% and the inhibition at 10 µM [5] was 100%.

COc1ccc(CNC(=N)N)cc1NC(=O)c1cc(C(=O)Nc2cc(CNC(=N)N)ccc2OC)c(OCCC(C)C)cc1OCCC(C)C [Cmpd 184] showed an IC50 [1, 15] of 3.1 µg/mL (≈ 4.49 µM), an EC50 [2, 16] of 155 µM and an EC50 [2, 17] of no less than 1000 µM. For the same compound, the inhibition at 10 µM [3] was 100%, the inhibition at 10 µM [4] was 100% and the inhibition at 10 µM [5] was 100%.

NCCCOc1cccc(-n2cc(-c3ccc4ccc(-c5cn(-c6cccc(OCCCN)c6)nn5)cc4c3)nn2)c1 [Compound 138] showed an IC50 [6] of 7.5 µg/mL (≈ 13.4 µM), an EC50 [7] greater than 50 µg/mL and an EC50 ([8]; Pseudomonas aeruginosa, P. aeruginosa 10145) greater than 50 µg/mL. For the same compound, the EC50 ([9]; Staphylococcus aureus, S. aureus 27660) was greater than 50 µg/mL, the EC50 ([10]; Escherichia coli, E. coli 25922) was greater than 50 µg/mL and the EC50 ([11]; Enterococcus faecalis, E. faecalis 29212) was greater than 50 µg/mL. It also gave an IC50 ([1]; vegetative cells, read-out: IC50 Candida, Vegetative) of 4.1 µg/mL (≈ 7.31 µM), an IC50 ([12]; Mus musculus, NIH3T3, cytotoxicity) of 406 µM and an IC50 ([13]; Homo sapiens, HepG2, cytotoxicity) of 502 µM. For the same compound, the IC50 [14] was 491 µM.

For NCCCn1c2cc(-c3ccc(CCN)c(CCN)c3)ccc2c2ccc(-c3ccc(CCN)c(CCN)c3)cc21 [Compound 159], the “PA (MIC)” value [8] was 6.25 µg/mL, the “SA (MIC)” value [9] was 0.78 µg/mL and the “EC (MIC)” value [10] was 0.78 µg/mL. For the same compound, the “EF (MIC)” value [11] was 3.13 µg/mL, the “CA (Candida IC50)” value ([1]; vegetative cells) was 2.11 µg/mL and the EC50 [12] was 61 µM. It also gave an EC50 [13] of 64 µM.
